Reference: ChEMBL document CHEMBL6071129, “Strategies that regulate Hippo signaling pathway for novel anticancer therapeutics” (Eur J Med Chem, 2024)
Each block holds one compound with its values, some of them ahead of it.

Tests used:
[1] = Inhibition of YAP (unknown origin)/TAZ-TEAD interaction (unknown origin); design: species or system Homo sapiens
MCF-10A = assay: Growth inhibition of human MCF-10A cells incubated for 48 hrs; format: functional
A2780 = assay: Antiproliferative activity against human A2780 cells incubated for 48 hrs by MTT assay; format: functional, cell-based; details: A2780, 48 h
[2] = Antiproliferative activity against human HCA46 cells incubated for 48 hrs by MTT assay; format: functional, cell-based; details: HCA46, 48 h
[3] = Antiproliferative activity against human A2780/CP70 cells incubated for 48 hrs by MTT assay; format: functional, cell-based; details: A2780/CP70, 48 h
[4] = Inhibition of TEAD4 (unknown origin) to YAP (unknown origin) expressed in HEK293 cells incubated for 16 hrs by dual luciferase reporter assay; format: cell-based; details: Homo sapiens, HEK293, 16 h
HT-29 = assay: Antiproliferative activity against human HT-29 cells incubated for 48 hrs by MTT assay; format: functional, cell-based; details: HT-29, 48 h
HCT-116 = assay: Antiproliferative activity against human HCT-116 cells incubated for 48 hrs by MTT assay; format: functional, cell-based; details: HCT-116, 48 h
[5] = Inhibition of His-tagged TEAD4 (unknown origin) to TAZ (unknown origin) protein-protein interaction preincubated for 30 mins followed by biotinylated YAP addition and measured after 60 mins by TR-FRET assay; design: species or system Homo sapiens
[6] = Inhibition of His-tagged TEAD1 (unknown origin) to YAP (unknown origin) protein-protein interaction preincubated for 30 mins followed by biotinylated YAP addition and measured after 60 mins by TR-FRET assay; design: species or system Homo sapiens
[7] = Inhibition of His-tagged TEAD3 (unknown origin) to TAZ (unknown origin) protein-protein interaction preincubated for 30 mins followed by biotinylated YAP addition and measured after 60 mins by TR-FRET assay; design: species or system Homo sapiens
[8] = Inhibition of His-tagged TEAD2 (unknown origin) to TAZ (unknown origin) protein-protein interaction preincubated for 30 mins followed by biotinylated YAP addition and measured after 60 mins by TR-FRET assay; design: species or system Homo sapiens
[9] = system: Transcriptional enhancer factor TEF-3-Lipid; assay: Inhibition of His-tagged TEAD4 (unknown origin) to lipid (unknown origin) interaction preincubated for 30 mins followed by biotinylated lipid addition and measured after 60 mins by TR-FRET assay; design: species or system Homo sapiens
[10] = Inhibition of His-tagged TEAD1 (unknown origin) to TAZ (unknown origin) protein-protein interaction preincubated for 30 mins followed by biotinylated YAP addition and measured after 60 mins by TR-FRET assay; design: species or system Homo sapiens
[11] = Antiproliferative activity against human VMRC-LCD cells by CellTiter-Glo luminescent cell viability assay; format: functional, cell-based
[12] = Inhibition of His-tagged TEAD3 (unknown origin) to YAP (unknown origin) protein-protein interaction preincubated for 30 mins followed by biotinylated YAP addition and measured after 60 mins by TR-FRET assay; design: species or system Homo sapiens
OVCAR-8 [13] = assay: Antiproliferative activity against human OVCAR-8 cells by CellTiter-Glo luminescent cell viability assay; format: functional, cell-based
[14] = Inhibition of His-tagged TEAD2 (unknown origin) to YAP (unknown origin) protein-protein interaction preincubated for 30 mins followed by biotinylated YAP addition and measured after 60 mins by TR-FRET assay; design: species or system Homo sapiens
[15] = system: Transcriptional enhancer factor TEF-5-Lipid; assay: Inhibition of His-tagged TEAD3 (unknown origin) to lipid (unknown origin) interaction preincubated for 30 mins followed by biotinylated lipid addition and measured after 60 mins by TR-FRET assay; design: species or system Homo sapiens
[16] = system: Transcriptional enhancer factor TEF-4-Lipid; assay: Inhibition of His-tagged TEAD2 (unknown origin) to lipid (unknown origin) interaction preincubated for 30 mins followed by biotinylated lipid addition and measured after 60 mins by TR-FRET assay; design: species or system Homo sapiens
OVCAR-8 [17] = assay: Antiproliferative activity against human OVCAR-8 cells assessed as minimum efficacy by CellTiter-Glo luminescent cell viability assay; format: functional
[18] = system: Transcriptional enhancer factor TEF-1-Lipid; assay: Inhibition of His-tagged TEAD1 (unknown origin) to lipid (unknown origin) interaction preincubated for 30 mins followed by biotinylated lipid addition and measured after 60 mins by TR-FRET assay; design: species or system Homo sapiens
[19] = Antiproliferative activity against human VMRC-LCD cells assessed as minimum efficacy by CellTiter-Glo luminescent cell viability assay; format: functional
[20] = Antiproliferative activity against human HCC1576 cells by CellTiter-Glo luminescent cell viability assay; format: functional, cell-based
[21] = Inhibition of His-tagged TEAD4 (unknown origin) to YAP (unknown origin) protein-protein interaction preincubated for 30 mins followed by biotinylated YAP addition and measured after 60 mins by TR-FRET assay; design: species or system Homo sapiens
[22] = Antiproliferative activity against human HCC1576 cells assessed as minimum efficacy by CellTiter-Glo luminescent cell viability assay; format: functional
[23] = Antiproliferative activity against human 92.1 cells incubated for 72 hrs by CCK8 assay; format: functional, cell-based; details: 92-1, 72 h
[24] = Antiproliferative activity against human MP41 cells incubated for 72 hrs by CCK8 assay; format: functional, cell-based; details: MP41, 72 h
[25] = Antitumor activity against human MP41 cells xenografted in BALB/c nu/nu mouse assessed as tumor growth inhibition at 30 mg/kg/day, ip administered for 21 days; format: functional; details: MP41, 504 h, time 21 day, read-out: TGI
[26] = Half life in ICR mouse at 15 mg/kg, po measured upto 24 hrs by LC-MS/MS analysis; format: ADME, organism-based; details: in vivo
[27] = Antiproliferative activity against human Mel202 cells; format: functional, cell-based
[28] = Antiproliferative activity against human OMM2.3 cells; format: functional, cell-based
Huh-7 = assay: Inhibition of tumor sphere formation in human Huh-7 cells; format: functional, cell-based
[29] = Inhibition of TAZ expressed in HEK293 cells incubated for 24 hrs by dual luciferase reporter assay; format: cell-based; details: Homo sapiens, HEK293, 24 h
HSC-3 = assay: Antiproliferative activity against human HSC-3 cells incubated for 72 hrs by MTT assay; format: functional, cell-based; details: HSC-3, 72 h
SCC-15 = assay: Antiproliferative activity against human SCC-15 cells incubated for 72 hrs by MTT assay; format: functional, cell-based; details: SCC-15, 72 h
SCC-9 [30] = assay: Antitumor activity against human SCC9 cells xenografted in nude mouse assessed as tumor growth inhibition at 50 mg/kg, po administered every other day; format: functional; details: read-out: TGI
SCC-9 [31] = assay: Antiproliferative activity against human SCC-9 cells incubated for 72 hrs by MTT assay; format: functional, cell-based; details: SCC-9, 72 h
[32] = Inhibition of GST-tagged human TEAD1 to human His6-tagged YAP2 protein-protein interaction incubated for 2 hrs by AlphaLisa method

IC50 (A2780): 12400 nM
IC50 [4]: 8600 nM
IC50 (HT-29): 3100 nM
IC50 (HCT-116): 14700 nM
SMILES: C=Cc1c(C)/c2[nH]/c1=C\C1=NC(=C\C3=NC(=C\C4=NC(=C5C=CC(C(=O)OC)=C(C(=O)OC)[C@@]45C)\C=2)/C(C)=C3CCC(=O)OC)/C(CCC(=O)O)=C1C
IC50 [2]: 5550 nM
IC50 [3]: 12300 nM

IC50 [29]: < 300 nM
SMILES: CC(C)[C@H](C(=O)Nc1ccc(C(=O)NO)cc1)c1ccccc1 [AR-42]
IC50 (HSC-3): 800 nM
IC50 (SCC-15): 350 nM
inhibition in vivo at 50 mg/kg (SCC-9 [30]): 85%
IC50 (SCC-9 [31]): 240 nM

IC50 [32]: 25400 nM
SMILES: COc1cc(/C=N/N(CCO)C2=NS(=O)(=O)c3ccccc32)ccc1O

Continued, compound first:

SMILES: COc1ccc(CCNC(=O)C2=CS(=O)(=O)c3ccccc32)cc1
IC50 [1]: 12700 nM
GI50 (MCF-10A): 3200 nM

SMILES: Cc1nccnc1-c1nn2c(=O)cc(-c3ccc(C4CCCCC4)cc3)[nH]c2c1C(=O)N1CC(CF)C1
IC50 [5]: 30 nM
IC50 [6]: 40 nM
IC50 [7]: 100 nM
IC50 [8]: 10 nM
IC50 [9]: 10 nM
IC50 [10]: 50 nM
EC50 [11]: 22000 nM
IC50 [12]: 90 nM
EC50 (OVCAR-8 [13]): 170 nM
IC50 [14]: 10 nM
IC50 [15]: 50 nM
IC50 [16]: 10 nM
Emin (OVCAR-8 [17]): 92%
IC50 [18]: 20 nM
Emin [19]: 27%
EC50 [20]: 290 nM
IC50 [21]: 30 nM
Emin [22]: 81%

SMILES: CN1CCCC1CN1CCn2cc(-c3ccccc3)nc2[C@@H]1CC1CCCCC1 (some centres undefined)
IC50 [23]: 10400 nM
IC50 [24]: 5100 nM
inhibition in vivo at 30 mg/kg/day [25]: 107%
half-life [26]: 2.4 h

SMILES: O=C(CSc1nnc[nH]1)Nc1ccc(C23CC4CC(CC(C4)C2)C3)cc1
IC50 [27]: 4240 nM
IC50 [28]: 4580 nM
IC50 (Huh-7): 720 nM
